From patent publication US20080260842A1, “PERMEATION ENHANCING COMPOSITIONS FOR ANTICHOLINERGIC AGENTS” (priority 2004, published 2008)
Like-named read-outs stand apart in the source and are kept apart here.

Tests used:
[1] = Dose-ranging pharmacokinetic study of transdermal oxybutynin gel in healthy volunteers (Example 18); settings: after 20 days (steady-state), mean ± SD, N = 16
Experimental: The study was an open-label, randomized, parallel, three-treatment, dose-ranging pharmacokinetic study. […] The subjects were aged 19 to 53 (mean 35) years.
The oxybutynin transdermal gel formulation contained 3% w/w of oxybutynin base in a hydroalcoholic non-occlusive matrix including the unique combination of permeation enhancers of the present invention. Three different doses of the gel were administered topically once a day during 20 consecutive days: treatment A consisted in a daily amount of 1.4 g applied gel, corresponding to 42 mg oxybutynin; treatment B consisted in a daily amount of 2.0 g applied gel, corresponding to 60 mg oxybutynin; and treatment C consisted in a daily amount of 2.8 g applied gel, corresponding to 84 mg oxybutynin.

[2] = Pilot pharmacokinetic study of an oxybutynin gel formulation in healthy volunteers (Example 17); settings: Treatment A (60 mg/day gel), 156 h, individual subjects
Experimental: (§1) Subjects were excluded on the basis of any preexisting condition or finding on the prestudy examination that would place them at risk during the study. Written informed consent was obtained from each subject before participating in any study-related procedures after discussion and explanation of the study.
(§2) Treatments were administered according to an open-label, multiple-dose, escalating dose titration pilot pharmacokinetic study and included a transdermal oxybutynin gel. Steady-state conditions were achieved by administering daily doses for 7 days. Subjects participated in 2 study periods during which the test medication (a transdermal gel) was applied once daily. 2 g of the gel (corresponding to a dose of 60 mg of oxybutynin) was applied daily during the first study period (Treatment A), then 1 g (corresponding to a dose of 30 mg of oxybutynin) during the second study period (Treatment B). A wash-out period of 7 days was observed between the two study periods. Both dosages were tested on same subjects. The design allows comparison between different dosages of the same formulation within the subject and removes inter-subject variability.
(§3) The main objective of this study was to assess the pharmacokinetic parameters of an oxybutynin gel formulation, administered in two different doses, administering the product in 8 healthy female volunteers.
(§4) The secondary objective of this study was to record safety parameters such as adverse events, skin tolerance, vital signs, e.g., blood pressure and heart rate.

[3] = female, human, in vivo
Experimental: as §1, §2, §3, §4

[4] = both, human, in vivo
detrusor muscle = settings: cited from earlier work
clinical = settings: both, human, in vivo, 84 mg, Tmax median
[5] = Pharmacokinetic study of R/S OXY and DEO enantiomers, transdermal oxybutynin gel (Example 20); assay type: in vivo, human; settings: single-dose topical 84 mg OXY gel, abdominal area, normalized to 84 mg, mean ± SD, N = 10
Experimental: Ten healthy volunteers (Asian Indians, 60% female) aged 18 to 35 (mean 29) years old were treated with 2.8 g of a formulation of the present invention containing 3% w/w of OXY base (84 mg OXY), administered topically as a single dose on the abdomen (700 cm^2).

CCNCC#CCOC(=O)C(O)(c1ccccc1)C1CCCCC1 (centres unmarked) [N-desethyloxybutynin]
Cav ([1]; Treatment A: 42 mg oxybutynin daily): 3.0 ± 1.3 ng/mL | Cav ([1]; Treatment B: 60 mg oxybutynin daily): 4.0 ± 2.1 ng/mL | Cav ([1]; Treatment C: 84 mg oxybutynin daily): 7.0 ± 4.0 ng/mL | N-desethyloxybutynin concentration [2]: 11.970 ng/L

CCN(CC)CC#CCOC(=O)C(O)(c1ccccc1)C1CCCCC1 (centres unmarked) [Oxybutynin]
Treatment A/Treatment B Ratio - Oxybutynin [3]: 1.93 | Treatment A/Treatment B Ratio - Oxybutynin ([3]; 0 h): 0 | time to reach plasmatic levels of about 1 to 4 ng/ml [4]: about 2 hours | time to reach plasmatic levels of about 2 to 4 ng/ml [4]: less than 4 hours | time to reach plasmatic levels of about 3 to about 4 ng/ml [4]: less than 6 hours | time up to which plasmatic levels of about 1 to 4 ng/ml are sustained [4]: at least 72 hours | time up to which plasmatic levels of about 2 to 4 ng/ml are sustained [4]: at least 48 hours | time up to which plasmatic levels of about 3 to about 4 ng/ml are sustained [4]: at least 36 hours | antispasmodic activity relative to atropine (detrusor muscle): four to ten times | anticholinergic activity relative to atropine (detrusor muscle; detrusor muscle, effect observed in rabbits): one-fifth | Tmax (clinical): 24 h

CCNCC#CCOC(=O)[C@](O)(c1ccccc1)C1CCCCC1 [R-DEX]
AUC0-120 [5]: 269.5 ± 132.8 ng·h/mL | Cmax [5]: 6.3 ng/mL

CCN(CC)CC#CCOC(=O)[C@](O)(c1ccccc1)C1CCCCC1 [R-OXY]
AUC0-120 [5]: 151.1 ± 56.0 ng·h/mL | Cmax [5]: 3.6 ng/mL

CCNCC#CCOC(=O)[C@@](O)(c1ccccc1)C1CCCCC1 [S-DEX]
AUC0-120 [5]: 285.5 ± 152.9 ng·h/mL | Cmax [5]: 6.9 ± 3.8 ng/mL

CCN(CC)CC#CCOC(=O)[C@@](O)(c1ccccc1)C1CCCCC1 [S-OXY]
AUC0-120 [5]: 246.0 ± 96.7 ng·h/mL | Cmax [5]: 5.8 ± 2.6 ng/mL
